Data as given in patent US4734280A, “Treatment or prevention of PAF Acether-induced maladies” (priority 1984, dated 1988).
Where two headings read alike, the source gives them in different places.

How the values were obtained:
PAF-Acether receptor = molecular target: T1, PAF-Acether receptor (Oryctolagus cuniculus, UniProt G1TEI7); test: Competition with 3H-PAF Acether binding, rabbit membrane platelet preparation
T1 construct: using a rabbit membrane platelet preparation; from tissue; host or cells: rabbit platelets (membrane preparation)
Text: The competition of the alternative binding of either ^3 H-PAF Acether or one of the Ginkgolides was evidenced by radioactive determinations using a rabbit membrane platelet preparation. (100% control=^3 H-PAF Acether alone).

rabbit platelets = test: Ex vivo PAF Acether-induced rabbit PA after per os or IV administration; assay type: in vivo; conditions: for activity at 0.5 mg/kg / activity at 1 mg/kg / activity at 2 mg/kg: Oryctolagus cuniculus, Platelet, iv, read-out: PAF Acether-induced rabbit PA (% of control); for activity at 0.5 mg/kg: IV 0.5 mg/kg; for activity at 1 mg/kg: IV 1 mg/kg; for activity at 2 mg/kg: IV 2 mg/kg
Procedure: Drugs were administered per os (2,5 and 10 mg/kg) or by IV route (0.5, 1, 2 mg/kg) and blood samples were taken at different times to test platelet aggregation with PAF-Acether ([…]) (see following table wherein the figures appearing are the ratio to the control with the solvent used, i.e. DMSO).

human washed platelets = test: Inhibition of PAF Acether-induced PA, human washed platelets; assay type: cell-based; conditions: Platelet, average values of 5 assays
Text: The inhibition of PAF Acether-induced PA was also experimented using human washed platelets on Ginkgolides A, B, and C.
Best figure for IC50 was obtained with Ginkgolide B (GK B) (average values of 5 assays) with 2.5 10^-5 M.

[1] = system: guinea-pig mesenteric artery; test: Opto-electronic follow-up of PAF Acether-induced thrombus, guinea-pig mesenteric artery; assay type: in vivo
Text: In this experimental study, 20 guinea-pigs were used. […] Briefly summarized, this method consists in the dissection over a distance of 2 to 3 mm of a branch of the mesenteric artery following gently extraction of a loop of small intestine. By transillumination, the image of this arterial segment is projected onto a set of 30 light-depending resistances (LDR) arranged in two columns of 15 elements each. An LDR element has the property to change its internal resistance as a function of a variation of light intensity. Each LDR is connected into its own Wheatstone bridge, and the changes in light intensity due to thrombus formation will be recorded as variations in electrical potentials and registered as such via a multiplexing device.
In the present investigation, several discriminating parameters are recorded: (a) the t1 interval or the lag period (this is the time interval between the beginning of the PAF Acether superfusion and the first signs of thrombus formation; (b) the td interval is the duration of the thrombotic phenomenon; (c) the O(t) curve indicates the number of LDR elements covered by the thrombus image; (d) the D(t) curve represents during each 30×1/9×10^-2 sec interval the greatest potential deviation on one of the LDR elements covered by the thrombus image; (e) the T(t) curve represents the summation of the potentials registered on the LDR elements during a time interval of 30×1/9×10^-2 sec the TTV(t) curve results from the integration of the T(t) values in function of time; (f) mD, mT, and mO correspond to the maximal values registered on, respectively, the D(t), T(t), and O(t) curves; (g) TTV is the maximal value of the TTV(t) curve, whereas TVM is the value of this curve up to the point where mT is reached.
In a first series of experiments (10 animals) the effect of local superfusion with PAF Acether (10^-4 M) is investigated.
In a second series of experiments (10 animals) the effects of Ginkgolide B and of kadsurenone have been compared preventively and curatively.

[2] = system: guinea-pig lung parenchymal strip; test: PAF Acether-induced contraction of superfused lung parenchymal strip
thermal-injured patients = test: Preliminary clinical trial in thermal-injured patients (open study); assay type: in vivo, human; conditions: perfusion 5 mg per hour for six hours then 2 mg per hour for 48 hours; 13 patients, burnt surface area >50%
Procedure: An open study has been performed on 13 thermal-injured patients (total burnt surface area >50%) treated by Ginkgolide B.
The Ginkgolide B was administered in a perfusion (5 mg per hour for six hours and then 2 mg per hour for the following 48 hours).

[3] = 0.5 h, PAF Acether 2.5 nM, 0.5 h
[4] = 0.5 h, PAF Acether 5.0 nM, 0.5 h

T1 sequence (G1TEI7 1-342): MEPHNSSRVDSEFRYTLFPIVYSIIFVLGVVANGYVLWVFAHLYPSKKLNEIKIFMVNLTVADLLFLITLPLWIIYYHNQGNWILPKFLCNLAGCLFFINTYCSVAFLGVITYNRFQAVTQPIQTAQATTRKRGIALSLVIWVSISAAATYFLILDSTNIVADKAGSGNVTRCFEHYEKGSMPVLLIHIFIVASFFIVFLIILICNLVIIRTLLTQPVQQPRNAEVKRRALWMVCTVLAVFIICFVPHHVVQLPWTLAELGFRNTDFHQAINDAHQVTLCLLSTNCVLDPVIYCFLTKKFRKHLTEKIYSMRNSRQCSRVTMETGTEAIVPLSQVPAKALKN

CC1C(=O)OC2C(O)C34C5CC(C(C)(C)C)C36C(OC(=O)C6O)OC4(C(=O)O5)C12O (stereo not shown) [Ginkgolide B]
IC50 (PAF-Acether receptor; rabbit membrane platelet preparation): 0.575 µM
inhibition at 1 µM (PAF-Acether receptor; read-out: reduction of 3H-PAF Acether binding): 94%
activity at 0.5 mg/kg (rabbit platelets; [3]): 0%
activity at 0.5 mg/kg (rabbit platelets; [4]): 0%
activity at 1 mg/kg (rabbit platelets; [3]): 0%
activity at 1 mg/kg (rabbit platelets; [4]): 0%
activity at 2 mg/kg (rabbit platelets; [3]): 0%
activity at 2 mg/kg (rabbit platelets; [4]): 0%
activity at 0.5 mg/kg (rabbit platelets; 1 h, PAF Acether 2.5 nM, 1 h): 7.4%
activity at 0.5 mg/kg (rabbit platelets; 1 h, PAF Acether 5.0 nM, 1 h): 9.4%
activity at 1 mg/kg (rabbit platelets; 1 h, PAF Acether 2.5 nM, 1 h): 0%
activity at 1 mg/kg (rabbit platelets; 1 h, PAF Acether 5.0 nM, 1 h): 1.1%
activity at 2 mg/kg (rabbit platelets; 1 h, PAF Acether 2.5 nM, 1 h): 0%
activity at 2 mg/kg (rabbit platelets; 1 h, PAF Acether 5.0 nM, 1 h): 0%
activity at 0.5 mg/kg (rabbit platelets; 2 h, PAF Acether 2.5 nM, 2 h): 11.2%
activity at 0.5 mg/kg (rabbit platelets; 2 h, PAF Acether 5.0 nM, 2 h): 14.5%
activity at 1 mg/kg (rabbit platelets; 2 h, PAF Acether 2.5 nM, 2 h): 4.1%
activity at 1 mg/kg (rabbit platelets; 2 h, PAF Acether 5.0 nM, 2 h): 7.2%
activity at 2 mg/kg (rabbit platelets; 2 h, PAF Acether 2.5 nM, 2 h): 0%
activity at 2 mg/kg (rabbit platelets; 2 h, PAF Acether 5.0 nM, 2 h): 0%
PAF Acether-induced rabbit PA (% of control) (rabbit platelets; per os 2 mg/kg, PAF Acether 2.5 nM, 0.5 h): 23%
PAF Acether-induced rabbit PA (% of control) (rabbit platelets; per os 2 mg/kg, PAF Acether 2.5 nM, 1 h): 37%
PAF Acether-induced rabbit PA (% of control) (rabbit platelets; per os 2 mg/kg, PAF Acether 2.5 nM, 2 h): 54%
PAF Acether-induced rabbit PA (% of control) (rabbit platelets; per os 2 mg/kg, PAF Acether 5.0 nM, 0.5 h): 34.5%
PAF Acether-induced rabbit PA (% of control) (rabbit platelets; per os 2 mg/kg, PAF Acether 5.0 nM, 1 h): 47.8%
PAF Acether-induced rabbit PA (% of control) (rabbit platelets; per os 2 mg/kg, PAF Acether 5.0 nM, 2 h): 71.2%
PAF Acether-induced rabbit PA (% of control) (rabbit platelets; per os 5 mg/kg, PAF Acether 2.5 nM, 1 h): 7%
PAF Acether-induced rabbit PA (% of control) (rabbit platelets; per os 5 mg/kg, PAF Acether 2.5 nM, 2 h): 10%
PAF Acether-induced rabbit PA (% of control) (rabbit platelets; per os 5 mg/kg, PAF Acether 5.0 nM, 0.5 h): 6%
PAF Acether-induced rabbit PA (% of control) (rabbit platelets; per os 5 mg/kg, PAF Acether 5.0 nM, 1 h): 11.4%
PAF Acether-induced rabbit PA (% of control) (rabbit platelets; per os 5 mg/kg, PAF Acether 5.0 nM, 2 h): 27.1%
IC50 (human washed platelets): 25 µM
thrombus formation when superfused with PAF Acether (preventive) ([1]; PAF Acether superfusion): no thrombus appeared
time for disappearance of pre-formed thrombus (curative) ([1]; PAF Acether-induced thrombus): 2.30 min
inhibition at 30 µg/mL ([2]; Cavia porcellus, read-out: change of PAF Acether (3 ng)-induced contraction): 78.8%
Contraction induced by PAF Acether (3 ng) (Arbitrary Units) ([2]; preventive superfusion 30 μg/ml, average of 10 determinations): 8.05 ± 2.16 Arbitrary Units
clinical outcome in thermal-injured patients (thermal-injured patients): faster recovery (decreased oedema, decreased plasma leakage and improvement of clinical outcome)
